Source: ChEMBL document CHEMBL1157539, “Thousands of chemical starting points for antimalarial lead identification” (Nature, 2010)

System: Plasmodium falciparum
Test: GSK_TCMDC: Inhibition of Plasmodium falciparum 3D7 in whole erythrocytes, using parasite LDH activity as an index of growth.
Format: functional, organism-based
Conditions: not given

| Structure (SMILES) | XC50 [nM] |
| --- | --- |
| O=C(C=Cc1ccccc1C(F)(F)F)NC1CCC(CN2CCC(c3c[nH]c4ccccc34)CC2)CC1 (centres undefined) | 902 |

Same assay, conditions: Plasmodium falciparum, 3D7

| Structure (SMILES) | XC50 [nM] |
| --- | --- |
| Oc1c(Cl)cc(-c2ccccc2)cc1CNC1CCCCC1 | 749 |
| COc1ccc2ncc(Cl)c(N3CCC(CCNCc4ccc5c(n4)NC(=O)CS5)CC3)c2c1 | 961 |
| O=C(Nc1ccc(F)c(Cl)c1)NC1CCN(c2ccnc3cc(Cl)ccc23)C1 (centres undefined) | 215 |
| COc1ccccc1CN1CCC(CNC(=O)c2cc(-c3cccc(C(F)(F)F)c3)cs2)C1 (centres undefined) | 1310 |
| Cc1ccc(C(=O)NC2CCN(CCNC(=O)Nc3cc(C)nc4ccccc34)CC2)cc1 | 490 |
| COc1nc(NCC(C)C)nc(Oc2ccc(=O)n(Cc3ccccc3)n2)n1 | 631 |
| Nc1ccc(-c2nc3cc(-c4ccc5[nH]c(-c6ccc(N)cc6)nc5c4)ccc3[nH]2)cc1 | 129 |
| O=C(Cc1ccc[n+]([O-])c1)Nc1cccc(-c2cccc(-c3nc4cc(F)ccc4[nH]3)c2)c1 | 897 |
| COc1ccc(Cn2c(Nc3cccc(C(F)(F)F)c3)nc3cc(C(=O)NCCCN(C)C)ccc32)cc1Cl | 913 |
| COc1ccc2nccc([C@@H](O)CN3CCC(NC(=O)Cc4cccc5c(Br)cccc45)CC3)c2c1 | 796 |
| CCNc1cc(C(=O)N[C@@H](Cc2ccoc2)[C@H](O)CNC(C)CCCC(C)C)cc(N2CCCCS2(=O)=O)c1 (some centres undefined) | 619 |
| CN(c1cc(NC(=O)c2ccc(F)cc2)ccn1)C1CCN(Cc2cccc(F)c2)CC1 | 495 |
| COC(=O)c1ccc(CC(C)NCC(O)c2ccc(F)c(Cl)c2)cc1 (centres undefined) | 863 |
| O=C(Nc1cccc(CN2CCCN(Cc3cccnc3)CC2)c1)c1cc2ccccc2s1 | 1470 |
| COCCn1c(Sc2ncnc3sccc23)nc2ccccc21 | 879 |
| CCCCCCCN1CC[C@@H](CCC(O)c2ccnc3ccc(OC)cc23)[C@@H](CC)C1 (some centres undefined) | 754 |
| Clc1cc(Nc2ncnc3sc(C#C[C@H]4CCCN4)cc23)ccc1OCc1cccnc1Cl | 569 |
| CC(CC(=O)NCC1(c2ccc(F)cc2Cl)CCOCC1)C(=O)c1ccc(Cl)cc1 (centres undefined) | 856 |
| Cc1cccc(-c2cccc(CNc3nc(NCCc4ccc(O)cc4)nc(N4CCNCC4)n3)c2)c1 | 1190 |
| NC1CCCN(Cc2ccc(-c3cccc(-c4nc5ccccc5[nH]4)c3)cc2)C1 (centres undefined) | 721 |
| Cc1ccc(NC(=S)N2CCCN(CCCCCNC(=O)/C=C/c3ccc(Cl)c(Cl)c3)CC2)cc1Cl | 916 |
| CC[C@H]1CN2CC[C@H]1C[C@H]2[C@H](O)c1ccnc2ccc(C#N)cc12 | 147 |
| CC(C)N1CCN(C(CN2CCN(CCCOc3cccc4ccccc34)CC2)c2ccc(F)cc2)CC1 (centres undefined) | 879 |
| CCOc1cc2ncnc(Nc3cc(Cl)c(Cl)c(Cl)c3)c2cc1OCC | 197 |
| CC(C)(CNCc1ccc(F)c(F)c1)c1nc(-c2ccc(Cl)c(O)c2)c(-c2ccncc2)[nH]1 | 660 |

| Structure (SMILES) | XC50 [nM] |
| --- | --- |
| O=C(N[C@H]1CCN(Cc2ccc(OCCCN3CCCCC3)cc2)C1)c1ccc(Oc2ccccc2)cc1 | 784 |
| O=C(/C=C/c1ccc(Cl)c(Cl)c1)NCCCCCN1CCC(NC(=O)Nc2cccc(Cl)c2F)CC1 | 378 |
| COc1cccc(NC(=O)Cn2c(C)c(C(=O)C(F)(F)F)c3ccccc32)c1 | 827 |
| OC[C@H](Nc1nc(C(Oc2ccccc2)c2ccccc2)nc2[nH]ncc12)c1ccccc1 (some centres undefined) | 854 |
| Cc1c(C)c2c(c(C)c1O)CC[C@@](C)(C(=O)NC1CCC(CN3CCC(c4c[nH]c5ccccc45)CC3)CC1)O2 (some centres undefined) | 965 |
| CC(=O)c1ccc2nc[nH]c(=O)c2c1 | 722 |
| NC(=O)C1Cc2ccccc2CN1CC(=O)Nc1ccccc1Sc1ccccc1 (centres undefined) | 68.4 |
| O=C(Nc1cc(C(F)(F)F)cc(C(F)(F)F)c1)NC(CCCN1CCC2(CC1)OCc1ccccc12)c1ccc(Cl)c(Cl)c1 (centres undefined) | 820 |
| O=C(CC(=O)C(F)(F)F)c1ccc2c(c1)OCO2 | 744 |
| COc1ccc(CC2(c3ccc(F)cc3)N=C(N)N(CCCc3ccc(F)c(F)c3)C2=O)cc1 (centres undefined) | 779 |
| CC(C)(CC1CCCCC1)NC(=O)[C@H](CC1CCCCC1)Nc1ccc(C#N)c2ccccc12 | 592 |
| c1ccc2c(c1)CN(CC1CCOCC1)CC1(CCN(Cc3c[nH]c4cnccc34)CC1)O2 | 1550 |
| N#CCCN1CCN(Cc2ccc(-c3ccc(-c4nc5cc(F)ccc5[nH]4)s3)cc2)CC1 | 659 |
| O=C(Nc1ccsc1)Nc1cccc(-c2ccc(-c3nc4cc(C(F)(F)F)ccc4[nH]3)cc2)c1 | 351 |
| CCOC(=O)c1c(SCc2cccc(F)c2F)[nH]c2ccccc2c1=O | 644 |
| COc1ccc(Nc2nc(NCc3cccnc3)cc(-c3ccc(OC)cc3)n2)cc1 | 1400 |
| CCCCCC(C)C(C)c1cc(O)c2c(c1)OC1(C(C)C)CC(O)C(C)C2C1 (centres undefined) | 985 |
| Cc1cnc(Nc2ccccc2)nc1N[C@@H](CCCN)C(=O)Nc1ccccc1 | 807 |
| COc1cc(-c2[nH]c(-c3ccc(OCCN(C)C)cc3)cc2-c2ccncc2)ccc1Cl | 1790 |
| O=C(Nc1cccc(-c2csc(-c3nc4ccccc4[nH]3)c2)c1)c1cc(=O)c2ccccc2[nH]1 | 232 |
| CC1(C)NC(N)=NC(=N)N1OCCCOc1cccc2ccccc12 | 3.2 |
| O=C(Nc1ccncc1)c1cc(C(=O)Nc2ccncc2)cc([N+](=O)[O-])c1 | 614 |
| CCCC(CNCc1cccc(OC(F)(F)F)c1)CNc1cc(=O)c2ccccc2[nH]1 (centres undefined) | 556 |
| Cc1nccn1Cc1cc(C(C)(C)C)c(O)c(C(C)(C)C)c1 | 788 |
| Cc1cc(C)cc(OCC(O)CN(Cc2cc(Cl)cc(Cl)c2)C(=O)Nc2ccc(Cl)cc2)c1 (centres undefined) | 810 |

| Structure (SMILES) | XC50 [nM] |
| --- | --- |
| CCOC(=O)c1ccc(COc2ccc(C)nc2)cc1 | 542 |
| CC(C)N(Cc1ccc(-c2ccc(C(F)(F)F)cc2)cc1)C(=O)Cn1c(CCc2cccc(F)c2F)cc(=O)c2ccc(CCCN3CCCCC3)cc21 | 736 |
| COC(=O)c1ccc(C[C@@H](C)NC[C@H](O)c2cccc(C(F)(F)F)c2)cc1 | 790 |
| COc1ccccc1Nc1nc(C)cc(NCc2ccc(-n3ccnc3)cc2)n1 | 1050 |
| O=C(Cc1ccc(NC(=O)c2ccc(O)c(-c3ccc(Cl)c(Cl)c3)c2)cc1)NCc1cccc(C(F)(F)F)c1 | 878 |
| Clc1cc(Nc2ccnc3ccc(Br)cc23)ccc1Oc1ccc(Cl)c2ccccc12 | 634 |
| CC(=O)c1ccc2cc(C(=O)NC3CCC(CCN4CCc5ccc(-c6noc(C)n6)cc5CC4)CC3)[nH]c2c1 (centres undefined) | 946 |
| O=C(Nc1ccccc1Br)c1cn(-c2ccccc2)nc1-c1cccc([N+](=O)[O-])c1 | 1320 |
| Nc1nc(N)c2c(n1)CCC(c1ccccc1)C2 (centres undefined) | 1010 |
| O=C(Nc1nc(-c2ccccn2)cc2ccccc12)c1cccc(Cl)c1 | 754 |
| CC(C)CCN1CCCN(Cc2cccc(NC(=O)c3ccc(Cl)c(Cl)c3)c2)CC1 | 1020 |
| Cc1noc(C)c1-c1ccc2c(Nc3ccc(C(F)(F)F)cc3)c(C(N)=O)cnc2c1 | 319 |
| CCCn1c(Sc2ccc(C#N)c([N+](=O)[O-])c2)nnc1-c1cc(OC)cc(OC)c1 | 718 |
| COc1ccc(-c2cccc(NC(=O)c3ccc(Cl)cc3)c2)cc1CN1CCNCC1 | 840 |
| CNCCNCc1ccc(-c2cccc(-c3nc4cc(F)ccc4[nH]3)c2)cc1 | 1130 |
| Cc1ccc(-c2nc3cc(C(=O)NC4CCN(Cc5ccccc5)CC4)ccc3[nH]2)cc1 | 744 |
| CCCNC(=O)c1cncc(-c2ccc(CNC(CC)c3ccccc3)cc2)c1 (centres undefined) | 876 |
| CC(C)COc1ccc(Cl)cc1Cc1ccc(-c2nc3ccc(C(F)(F)F)cc3[nH]2)o1 | 847 |
| CCc1ccc(NC(=O)c2ccc(CN3CCCN(Cc4cccc(O)c4)CC3)cc2)cc1 | 673 |
| CCNc1cc(C)nc(Nc2ccc(NC(=O)C3CCCC3)cc2)n1 | 1120 |
| CCOc1cc(C(=O)NCCN(C(C)C)C(C)C)ccc1-c1nc2cc(Cl)ccc2[nH]1 | 778 |
| CN1CCc2ccc(NC(=O)Nc3cccc(C(=O)c4ccccc4)c3)cc2C1 | 917 |
| NC1CCN(CCc2ccc(NS(=O)(=O)c3ccc(-c4ccccc4)cc3)cc2)CC1 | 1020 |
| C#CCNCc1ccc(-c2cccc(-c3nc4cccc(C)c4[nH]3)c2)cc1 | 818 |
| CC(C)CCN1CCC(Oc2ccc(NC(=O)c3ccccc3)cc2Cl)CC1 | 1300 |

| Structure (SMILES) | XC50 [nM] |
| --- | --- |
| CCOC(=O)c1ccc(NC(=O)Nc2ccc(-c3ccc(-c4nc5cccc(C)c5[nH]4)s3)cc2)cc1 | 199 |
| O=C(CCc1c[nH]cn1)Nc1cccc(-c2cccc(-c3nc4ccccc4[nH]3)c2)c1 | 660 |
| Cc1ccc(Nc2ccnc(Nc3ccc(F)c(Cl)c3)n2)cc1O | 733 |
| CCCCCCNC(=O)C1Cc2c([nH]c3ccc(Br)cc23)C2(CCN(Cc3ccccc3)CC2)N1 (centres undefined) | 722 |
| COC(=O)c1ccc(N2CCN(CCCCNC(=O)c3ccc(NC(=O)c4ccc(Cl)cc4)cc3)CC2)c(OC)c1 | 1300 |
| CN1CCN(CCCN(Cc2csc(-c3ccc(CNCc4ccccc4)cc3)n2)C(=O)Nc2cccc(Cl)c2)CC1 | 789 |
| COc1cccc(C2=CC(C)(C)Oc3cc(OCCN(C)C)ccc32)c1 | 794 |
| Cc1nc(C)c(-c2ccc(S(=O)(=O)c3ccc(Cl)cc3)cc2)c(O)c1Br | 38 |
| COCC(=O)N(Cc1ccccc1-c1ccc(CNCCc2ccccc2)cc1)C1CCN(Cc2ccccc2)CC1 | 895 |
| O=C(C=Cc1ccccc1C(F)(F)F)NC1CCC(CN2CCC(c3c[nH]c4ccccc34)CC2)CC1 (centres undefined) | 677 |
| Oc1cccc(Nc2nc(NCC3CCCO3)c3ccccc3n2)c1 (centres undefined) | 812 |
| CCCCN(C)CC#Cc1ccc2[nH]c(C)c(Cl)c(=O)c2c1 | 130 |
| Nc1nc(N)c2c(ccc3c2cnn3S(=O)(=O)N2CCCC2)n1 | 18.6 |
| CC1(C)N=C(N)N=C(N)N1c1cccc(Cl)c1 | 37.9 |
| COc1ccc(-c2cccc(NC(=O)c3cccc(C#N)c3)c2)cc1CN(C)CCN(C)C | 314 |
| O=C(NCCN1CCOCC1)c1csc(C2CCCN(C(=O)c3ccc(O)c(-c4cc(Cl)cc(Cl)c4)c3)C2)n1 (centres undefined) | 1030 |
| CN1CCN(CCCN(Cc2ccc(-c3cccc(CNCc4ccc5c(c4)OCO5)c3)cc2)C(=O)CCC2CCCC2)CC1 | 1010 |
| COc1cc2c(cc1C(F)(F)F)N(C(=O)Nc1cc(Br)cc(-c3cccnc3)c1)CC2 | 864 |
| Cc1ccc2[nH]c(-c3ccccc3)cc(=NN=Cc3cccnc3)c2c1 | 691 |
| CC1CCCN(C(=O)c2cc(-c3ccccn3)nc3c(Cl)cccc23)C1 (centres undefined) | 1080 |
| O=S(=O)(c1cc2ccccc2s1)N(CCC(O)(C(F)(F)F)C(F)(F)F)Cc1cccc(O)c1 | 751 |
| C#CCNC(=O)c1ccc(-c2ccnc(Nc3cccc(CCCN4CCOCC4)c3)n2)s1 | 1000 |
| CN1CCCC(CN2CCN(Cc3cccc(-c4ccc(-c5nc6ccccc6[nH]5)s4)c3)CC2)C1 (centres undefined) | 149 |
